Results: patent US4180655A, “Nitrosourea derivatives” (Suami; Tetsuo, priority 1974, dated 1979)

Legend:
[1] = LD50 value / toxicity in the intraperitoneal administration to BDF1 mice; conditions: mouse, in vivo, ip
Excerpt: The new nitrosourea derivatives according to this invention are further characterized by their low toxicity, thus satisfying their practical application for treating leukemia and tumor diseases.

[2] = system: Leukemia L1210 cells; assay: Chemotherapeutic effect of nitrosourea derivatives on leukemia L1210 in mice; type: in vivo, mice (BDF1/BDF)
Excerpt: Chemotherapeutic effect of a variety of the nitrosourea derivatives of the formula I according to this invention on leukemia L1210 in mice were investigated by the following method and materials.
A--BDF1 mice (about 6 week-aged; body weight: 22±1 g); each experimental group was composed of 2 male mice.
B--BDF1 mice (about 7 week-aged; body weight: 21±2 g); each experimental group was composed of 3 male mice.
C--BDF mice (about 7 week-aged; body weight: 22±2 g); each experimental group was composed of 2 male mice.
D--BDF mice (about 6 week-aged; body weight: 21±2 g); each experimental group was composed of 3 male mice.
E--BDF1 mice (about six week-aged; body weight 20±1 g); each experimental group was composed of 3 female mice.
F--BDF1 mice (about six week-aged; body weight 21±1 g); each experimental group was composed of 3 male mice.
A--Leukemia L1210 cells (2.1×10^6 cells/ 0.05 ml/mouse) were intraperitoneally inoculated.
B--Leukemia L1210 cells (1.9×10^6 cells/0.05 ml/mouse) were intraperitoneally inoculated.
C--Leukemia L1210 cells (1.2×10^6 cells/0.05 ml/mouse) were intraperitoneally inoculated.
A--The test compound was dissolved in a physiological saline solution and administered intraperitoneally at a volume of 0.1 ml/mouse. The administration was made at once/day, from 24 hours after i.p. inoculation of L1210 cells, for 3 days. The effect of test compound was assessed by mean survival days of mice, percent increase in life-span, anatomical findings involving the volume of ascites.
B--The same as that used in A except that the drug administration was continued for 5 days.
C--The same as that used in A except that the test compound was suspended in 0.5% CMC solution and that the drug administration was continued for 5 days.
D--The same as that used in A except that the test compound was dissolved in distilled water for injection purposes.
The percentage increase in life-span (ILS) was calculated as follows:
Percentage increase in life-span (ILS)=T-C/C×100
T: The mean survival days of the treated animals.
C: The mean survival days of the untreated control.

[3] = 0.2 mg/kg i.p. once/day for 3 days (procedure A, saline)
[4] = 0.5 mg/kg i.p. once/day for 3 days (procedure A, saline)
[5] = 1 mg/kg i.p. once/day for 3 days (procedure A, saline)
[6] = 2 mg/kg i.p. once/day for 3 days (procedure A, saline)
[7] = 4 mg/kg i.p. once/day for 3 days (procedure A, saline)
[8] = 5 mg/kg i.p. once/day for 3 days (procedure A, saline)
[9] = 6.25 mg/kg i.p. once/day for 3 days (procedure A, saline)
[10] = 8 mg/kg i.p. once/day for 3 days (procedure A, saline)
[11] = 10 mg/kg i.p. once/day for 3 days (procedure A, saline)
[12] = Mus musculus, L1210, ip, 72 h, 0.5 mg/kg i.p. once/day for 3 days (procedure A, saline), read-out: Percentage increase in life-span (ILS)
[13] = Mus musculus, L1210, ip, 72 h, 1 mg/kg i.p. once/day for 3 days (procedure A, saline), read-out: Percentage increase in life-span (ILS)
[14] = Mus musculus, L1210, ip, 72 h, 2 mg/kg i.p. once/day for 3 days (procedure A, saline), read-out: Percentage increase in life-span (ILS)
[15] = Mus musculus, L1210, ip, 72 h, 4 mg/kg i.p. once/day for 3 days (procedure A, saline), read-out: Percentage increase in life-span (ILS)
[16] = Mus musculus, L1210, ip, 72 h, 5 mg/kg i.p. once/day for 3 days (procedure A, saline), read-out: Percentage increase in life-span (ILS)
[17] = Mus musculus, L1210, ip, 72 h, 8 mg/kg i.p. once/day for 3 days (procedure A, saline), read-out: Percentage increase in life-span (ILS)
[18] = Mus musculus, L1210, ip, 72 h, 10 mg/kg i.p. once/day for 3 days (procedure A, saline), read-out: Percentage increase in life-span (ILS)
[19] = 50 mg/kg i.p. once/day for 3 days (procedure A, saline)
[20] = 100 mg/kg i.p. once/day for 3 days (procedure A, saline)
[21] = 150 mg/kg i.p. once/day for 3 days (procedure A, saline)
[22] = 200 mg/kg i.p. once/day for 3 days (procedure A, saline)
[23] = 2.5 mg/kg i.p. once/day for 3 days (procedure A, saline)

Row | SMILES | Survival days, Treated (mean) [2, 4] [days] | Volume of ascites, Treated [2, 4] | Survival days, Treated (mean) [2, 5] [days] | Volume of ascites, Treated [2, 5] | Survival days, Treated (mean) [2, 6] [days] | Volume of ascites, Treated [2, 6] | Survival days, Treated (mean) [2, 7] [days] | Volume of ascites, Treated [2, 7] | Survival days, Treated (mean) [2, 8] [days] | Volume of ascites, Treated [2, 8] | Survival days, Treated (mean) [2, 10] [days] | Volume of ascites, Treated [2, 10] | Survival days, Treated (mean) [2, 11] [days] | Volume of ascites, Treated [2, 11] | ILS at 0.5 mg/kg [2, 12] [%] | ILS at 1 mg/kg [2, 13] [%] | ILS at 2 mg/kg [2, 14] [%] | ILS at 4 mg/kg [2, 15] [%] | ILS at 5 mg/kg [2, 16] [%] | ILS at 8 mg/kg [2, 17] [%] | other results
1 | O=NN(CCCl)C(=O)N[C@@H]1O[C@H](CO)[C@@H](O)[C@H](O)[C@H]1O [Compound 1, 1-(2-chloroethyl)-3-(β-D-glucopyranosyl)-1-nitrosourea] | 12.5 | 4.2 | 12.9 | 5.0 | 15.3 | 2.5 | 40.3 | 0 | 15.3 | 1.5 | 95.9 | 0 | 95.9 | 0 | 34.4 | 38.7 | 64.5 | 333 | 64.5 | 931 | LD50 [1]: ~25 mg/kg; Survival days, Treated (mean) [2, 3]: 12.0 days; Volume of ascites, Treated [2, 3]: 4.2; Survival days, Treated (mean) [2, 9]: > 40.1 days; Volume of ascites, Treated [2, 9]: 0; ILS at 0.2 mg/kg ([2]; Mus musculus, L1210, ip, 72 h, 0.2 mg/kg i.p. once/day for 3 days (procedure A, saline), read-out: Percentage increase in life-span (ILS)): 29%; ILS at 6.25 mg/kg ([2]; Mus musculus, L1210, ip, 72 h, 6.25 mg/kg i.p. once/day for 3 days (procedure A, saline), read-out: Percentage increase in life-span (ILS)): > 331%; ILS at 10 mg/kg [2, 18]: 931%
2 | CN(N=O)C(=O)N[C@@H]1O[C@H](CO)[C@@H](O)[C@H](O)[C@H]1O [Compound 11, 1-(β-D-glucopyranosyl)-3-methyl-3-nitrosourea, reference compound] | – | – | – | – | – | – | – | – | – | – | – | – | – | – | – | – | – | – | – | – | Survival days, Treated (mean) [2, 19]: 12.0 days; Volume of ascites, Treated [2, 19]: 2.8; Survival days, Treated (mean) [2, 20]: 13.9 days; Volume of ascites, Treated [2, 20]: 4.6; Survival days, Treated (mean) [2, 21]: 14.1 days; Volume of ascites, Treated [2, 21]: 1.9; Survival days, Treated (mean) [2, 22]: 16.6 days; Volume of ascites, Treated [2, 22]: 1.4; ILS at 50 mg/kg ([2]; Mus musculus, L1210, ip, 72 h, 50 mg/kg i.p. once/day for 3 days (procedure A, saline), read-out: Percentage increase in life-span (ILS)): 55.6%; ILS at 100 mg/kg ([2]; Mus musculus, L1210, ip, 72 h, 100 mg/kg i.p. once/day for 3 days (procedure A, saline), read-out: Percentage increase in life-span (ILS)): 80.7%; ILS at 150 mg/kg ([2]; Mus musculus, L1210, ip, 72 h, 150 mg/kg i.p. once/day for 3 days (procedure A, saline), read-out: Percentage increase in life-span (ILS)): 83.4%; ILS at 200 mg/kg ([2]; Mus musculus, L1210, ip, 72 h, 200 mg/kg i.p. once/day for 3 days (procedure A, saline), read-out: Percentage increase in life-span (ILS)): 108%
3 | O=NN(CCCl)C(=O)N[C@@H]1O[C@H](CO)[C@@H](O[C@@H]2O[C@H](CO)[C@H](O)[C@H](O)[C@H]2O)[C@H](O)[C@H]1O [Compound 8, 1-(2-chloroethyl)-3-(β-D-lactosyl)-1-nitrosourea] | – | – | – | – | – | – | – | – | 14.3 | 1.0 | – | – | > 47.0 | 0 | – | – | – | – | 47.4 | – | Survival days, Treated (mean) [2, 23]: 12.5 days; Volume of ascites, Treated [2, 23]: 3.3; ILS at 2.5 mg/kg ([2]; Mus musculus, L1210, ip, 72 h, 2.5 mg/kg i.p. once/day for 3 days (procedure A, saline), read-out: Percentage increase in life-span (ILS)): 28.9%; ILS at 10 mg/kg [2, 18]: > 384%
4 | O=NN(CCCl)C(=O)N[C@@H]1O[C@H](CO)[C@@H](O)[C@H](O)[C@@H]1O [Compound 2, 1-(2-chloroethyl)-3-(β-D-mannopyranosyl)-1-nitrosourea] | 13.0 | 3.0 | 13.7 | 2.3 | 14.7 | 1.2 | 15.0 | 1.2 | – | – | 18.3 | 0 | – | – | 44.4 | 51.9 | 63 | 66.7 | – | 103 | –
